Experimental data reported in patent publication US8450454B2, “Compositions for inhibiting ABAD/ABeta protein interaction” (The Trustees of Columbia University in the City of New York, priority 2004, dated 2013).
Ends that are not written are not given here.

T1: ABAD (Homo sapiens, UniProt Q99714)
T1 construct: made in house
T1 sequence (Q99714 1-261): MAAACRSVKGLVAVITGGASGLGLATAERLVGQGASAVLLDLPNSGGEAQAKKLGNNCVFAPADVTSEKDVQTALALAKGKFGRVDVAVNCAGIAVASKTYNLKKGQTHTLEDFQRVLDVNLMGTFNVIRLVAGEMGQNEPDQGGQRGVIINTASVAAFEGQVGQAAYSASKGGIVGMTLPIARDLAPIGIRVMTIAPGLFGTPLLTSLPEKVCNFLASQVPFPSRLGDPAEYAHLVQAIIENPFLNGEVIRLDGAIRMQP

B1: GST-ABAD(1-158): GST-ABAD truncation mutant, residues 1-158 (protein)
chain: MAAACRSVKGLVAVITGGASGLGLATAERLVGQGASAVLLDLPNSGGEAQAKKLGNNCVFAPADVTSEKDVQTALALAKGKFGRVDVAVNCAGIAVASKTYNLKKGQTHTLEDFQRVLDVNLMGTFNVIRLVAGEMGQNEPDQGGQRGVIINTASVAA
modifications: left off: a dimerising Fc or GST
B2: GST-ABAD(159-261): GST-ABAD truncation mutant, residues 159-261 (protein)
chain: FEGQVGQAAYSASKGGIVGMTLPIARDLAPIGIRVMTIAPGLFGTPLLTSLPEKVCNFLASQVPFPSRLGDPAEYAHLVQAIIENPFLNGEVIRLDGAIRMQP
modifications: left off: a dimerising Fc or GST
B3: S98A, K99A, Y101A: site-directed ABAD mutant (protein, UniProt Q99714 2-261, looked up, variant S98A K99A Y101A)
3-hydroxyacyl-CoA …: AAACRSVKGLVAVITGGASGLGLATAERLVGQGASAVLLDLPNSGGEAQAKKLGNNCVFAPADVTSEKDVQTALALAKGKFGRVDVAVNCAGIAVAAATANLKKGQTHTLEDFQRVLDVNLMGTFNVIRLVAGEMGQNEPDQGGQRGVIINTASVAAFEGQVGQAAYSASKGGIVGMTLPIARDLAPIGIRVMTIAPGLFGTPLLTSLPEKVCNFLASQVPFPSRLGDPAEYAHLVQAIIENPFLNGEVIRLDGAIRMQP
B4: GST-ABAD(1-186): GST-ABAD truncation mutant, residues 1-186 (protein)
chain: MAAACRSVKGLVAVITGGASGLGLATAERLVGQGASAVLLDLPNSGGEAQAKKLGNNCVFAPADVTSEKDVQTALALAKGKFGRVDVAVNCAGIAVASKTYNLKKGQTHTLEDFQRVLDVNLMGTFNVIRLVAGEMGQNEPDQGGQRGVIINTASVAAFEGQVGQAAYSASKGGIVGMTLPIARDL
modifications: left off: a dimerising Fc or GST

Legend:
cultured neurons [1] = experiment: LDH release from cultured neurons; type: cell-based, mouse; settings: neurons from Tg mAPP/ABAD mice (spontaneous) and Tg ABAD mice exposed to Aβ, peptide pretreatment
cultured neurons [2] = experiment: DNA fragmentation (Cell Death Detection ELISA) in cultured neurons; type: cell-based, mouse; settings: neurons from Tg mAPP/ABAD mice (spontaneous) and Tg ABAD mice exposed to Aβ, peptide pretreatment
ABAD = molecular target: T1, ABAD; experiment: Binding of fluorescein-labeled ABAD to amyloid-related peptide immobilized on microtiter wells
[3] = molecular target: T2, ABAD-Aβ (1-42) interaction (Homo sapiens, UniProt P05067); experiment: Surface plasmon resonance (Biacore): inhibition of Aβ (1-42) binding to immobilized ABAD; settings: one-site competitive inhibition fit
T2 construct: made in house
Protocol: (§1) 3) and ABAD reverse peptide (ABAD-RP, residues 120-92) were synthesized by Biotechnology Lab at Yale University. For binding studies, ABAD was immobilized on CM5 sensor chip (29). […] The reaction/binding buffer contained 50 mM Hepes at pH 7.4, 0.15 M NaCl, 1 mM EDTA, and 0.005% Tween 20. Data analysis was performed using Biacore X biosensor system (Uppsala, Sweden) and BIA evaluation 3.0 software (Biacore, Sweden). Response data are plotted in Resonance Units versus ABAD peptide concentrations (nM), and were fit to a one-site model for competitive inhibition to obtain the Ki.

[4] = molecular target: T3, ABAD-Aβ (1-40) interaction (Homo sapiens, UniProt P05067); experiment: Surface plasmon resonance (Biacore): inhibition of Aβ (1-40) binding to immobilized ABAD; settings: one-site competitive inhibition fit
T3 construct: made in house
Protocol: as §1

Aβ (1-42) = Aβ (1-42) (Homo sapiens, UniProt P05067); experiment: Binding of 125I-labeled GST-ABAD or ABAD mutants to immobilized Aβ (1-42); set-up: key: +: Specific binding comparable to that observed with wild type ABAD; −: No observed specific binding; settings: 125I-labeled GST-ABAD or ABAD to immobilized Aβ (1-42)
Aβ (1-40) = Aβ (1-40) (Homo sapiens, UniProt P05067); experiment: Surface plasmon resonance: Aβ (1-40) binding to immobilized wild-type or mutant ABAD; settings: ABAD immobilized on sensor chip, Aβ (1-40) mobile phase
Protocol: as §1, with “[…]; SEQ ID NO. 3)” for “3)”

Chain of Aβ (1-42) (P05067 672-713): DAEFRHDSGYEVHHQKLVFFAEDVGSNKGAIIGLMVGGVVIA
T2 sequence (P05067 672-713): as above
Chain of Aβ (1-40) (P05067 672-711): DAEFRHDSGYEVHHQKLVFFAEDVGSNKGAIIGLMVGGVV
T3 sequence (P05067 672-711): as above

Molecule	binding to ABAD (in words) (ABAD)	Aβ Binding (Aβ (1-42))	other results
CC[C@H](C)[C@H](NC(=O)CNC(=O)[C@H](C)N)C(=O)N[C@@H](C)C(=O)N[C@H](C(=O)N[C@@H](C)C(=O)N[C@@H](CO)C(=O)N[C@@H](CCCCN)C(=O)N[C@H](C(=O)N[C@@H](Cc1ccc(O)cc1)C(=O)N[C@@H](CC(N)=O)C(=O)N[C@@H](CC(C)C)C(=O)N[C@@H](CCCCN)C(=O)N[C@@H](CCCCN)C(=O)NCC(=O)N[C@@H](CCC(N)=O)C(=O)N[C@H](C(=O)N[C@@H](Cc1c[nH]cn1)C(=O)N[C@H](C(=O)N[C@@H](CC(C)C)C(=O)N[C@@H](CCC(=O)O)C(=O)N[C@@H](CC(=O)O)C(=O)N[C@@H](Cc1ccccc1)C(=O)N[C@@H](CCC(N)=O)C(=O)N[C@@H](CCCNC(=N)N)C(=O)N[C@H](C(=O)N[C@@H](CC(C)C)C(=O)N[C@@H](CC(=O)O)C(=O)N[C@H](C(=O)O)C(C)C)C(C)C)[C@@H](C)O)[C@@H](C)O)[C@@H](C)O)C(C)C [ABAD-DP]			LDH release (cytotoxicity) (cultured neurons [1]): attenuated cytotoxicity; DNA fragmentation (cytotoxicity) (cultured neurons [2]): attenuated cytotoxicity
CC[C@H](C)[C@H](NC(=O)[C@H](C)NC(=O)CNC(=O)[C@H](Cc1ccccc1)NC(=O)[C@H](CC(N)=O)NC(=O)[C@H](CC(N)=O)NC(=O)[C@H](CO)NC(=O)[C@H](CO)NC(=O)[C@H](Cc1c[nH]cn1)NC(=O)[C@@H](NC(=O)[C@H](CC(C)C)NC(=O)[C@H](Cc1ccccc1)NC(=O)[C@H](CC(N)=O)NC(=O)[C@H](C)NC(=O)[C@H](CC(C)C)NC(=O)[C@H](CCCNC(=N)N)NC(=O)[C@H](CCC(N)=O)NC(=O)[C@@H](NC(=O)[C@H](C)NC(=O)[C@@H]1CSSC[C@H](NC(=O)[C@@H](N)CCCCN)C(=O)N[C@@H](CC(N)=O)C(=O)N[C@@H]([C@@H](C)O)C(=O)N[C@@H](C)C(=O)N[C@@H]([C@@H](C)O)C(=O)N1)[C@@H](C)O)C(C)C)C(=O)N[C@@H](CC(C)C)C(=O)N[C@@H](CO)C(=O)N[C@@H](CO)C(=O)N[C@H](C(=O)N[C@@H](CC(N)=O)C(=O)N[C@H](C(=O)NCC(=O)N[C@@H](CO)C(=O)N[C@@H](CC(N)=O)C(=O)N[C@H](C(=O)N[C@@H](Cc1ccc(O)cc1)C(N)=O)[C@@H](C)O)C(C)C)[C@@H](C)O [Amylin]	did not bind		
CC(C)C[C@H](NC(=O)[C@H](CCCCN)NC(=O)[C@H](CCC(N)=O)NC(=O)[C@H](Cc1c[nH]cn1)NC(=O)[C@H](Cc1c[nH]cn1)NC(=O)[C@@H](NC(=O)[C@H](CCC(=O)O)NC(=O)[C@H](Cc1ccc(O)cc1)NC(=O)CNC(=O)[C@H](CO)NC(=O)[C@H](CC(=O)O)NC(=O)[C@H](Cc1c[nH]cn1)NC(=O)[C@H](CCCNC(=N)N)NC(=O)[C@H](Cc1ccccc1)NC(=O)[C@H](CCC(=O)O)NC(=O)[C@H](C)NC(=O)[C@@H](N)CC(=O)O)C(C)C)C(=O)N[C@H](C(=O)N[C@@H](Cc1ccccc1)C(=O)N[C@@H](Cc1ccccc1)C(=O)O)C(C)C [Aβ 1-20]	dose-dependent binding		
GSNKGAIIGLM [Aβ 25-35]	no specific binding		Kd (ABAD; peptide immobilized on microtiter wells, fluorescein-labeled ABAD added): > 1 µM
VDLVRQFDELTHTQGKKLNYTKSAVAIGA [ABAD-RP, reference compound]			inhibitory constant, binding of Aβ (1-42) to immobilized intact ABAD [3]: completely inactive; inhibitory constant, binding of Aβ (1-40) to immobilized intact ABAD [4]: completely inactive; DNA fragmentation (cytotoxicity) (cultured neurons [2]): not
B1		+	
B2		−	
B3		−	interaction with Aβ in surface plasmon resonance (Aβ (1-40)): no specific interaction
B4		+	
